This is an account of results in paper PMC4580457, “Use of Labelled tLyP-1 as a Novel Ligand Targeting the NRP Receptor to Image Glioma” (PLoS ONE, 2015).

A short description of this series: in vivo. The arrangement: species or system BALB/C athymic nude mice. To be noted: BALB/C athymic nude, mouse, iv, 150 uL of 1 mM, T/NT ratio. Here is the method: Mice with U87MG tumor xenografts (n = 10) were randomly divided into an experimental group (n = 5) and control group (n = 5). The mice in the experimental group were intravenously injected with 150 μL of FAM-tLyP-1 (1mM), while the control group received 150 μL of FAM-labeled control peptide (1mM). The mice were sacrificed after 1 h by cervical dislocation under ketamine/xylazine anesthesia. The tumor and normal organs were then removed, washed with PBS at least three times, and then collected for imaging ex vivo. FAM-tLyP-1 uptake in the tumor and normal organs was described by a blinded observer under blue light with an exposure time of 60 s, using the Kodak in-Vivo Imaging System F (Kodak, American), and processed for fluorescence intensity analysis. The fluorescence intensity was analyzed visually based on the brightness of the green light indicating uptake of FAM-tLyP-1.
The intensity of FAM-tLyP-1 uptake in the tumor and normal organs was analyzed blindly using the Kodak MI analysis software (Kodak, American). The fluorescence intensity was analyzed visually from high to low levels based on a color scale of white, red, yellow, green, blue, and black. Regions of interest (ROIs) were drawn around the border of the tumor and normal organs on the fluorescence images and the average fluorescence intensity was measured. The tumor/non-tumor ratios (T/NT ratios) were calculated by dividing the fluorescence intensity in the tumor by that of the normal organs.

Peptide text beside a SMILES is read from it. * marks the point of attachment. 5FAM = O=C1OC2(c3ccc(O)cc3Oc3cc(O)ccc32)c2ccc(C(=O)*)cc21

Take `CSCC[C@H](N)C(=O)N[C@@H](C)C(=O)N[C@@H](CCC(N)=O)C(=O)N[C@@H](CCCCNC(=O)c1ccc2c(c1)C(=O)OC21c2ccc(O)cc2Oc2cc(O)ccc21)C(=O)N[C@H](C(=O)N[C@@H](CO)C(=O)N[C@@H](Cc1c[nH]cn1)C(=O)O)[C@@H](C)O` [FAM-control peptide] (H-MAQK(5FAM)TSH-OH): the tissue to tissue ratio at 1 h (T/brain) was determined as 1.32 ± 0.15; the tissue to tissue ratio at 1 h (T/heart) was 1.94 ± 0.26; the tissue to tissue ratio at 1 h (T/intestine) came out at 0.87 ± 0.3; the tissue to tissue ratio at 1 h (T/kidney) was found to be 0.57 ± 0.51; the tissue to tissue ratio at 1 h (T/liver) was found to be 1.28 ± 0.25; the tissue to tissue ratio at 1 h (T/lung) is 1.4 ± 0.1. Moreover, the tissue to tissue ratio at 1 h runs as follows: (T/muscle) 1.31 ± 0.14; (T/spleen) 1.75 ± 0.17.
Turning to `C[C@@H](O)[C@H](NC(=O)[C@H](CCCNC(=N)N)NC(=O)[C@H](CCCCNC(=O)c1ccc2c(c1)C(=O)OC21c2ccc(O)cc2Oc2cc(O)ccc21)NC(=O)[C@H](CC(N)=O)NC(=O)CNC(=O)[C@@H](N)CS)C(=O)N[C@@H](CCCNC(=N)N)C(=O)O` [FAM-tLyP-1] (H-CGNK(5FAM)RTR-OH), the tissue to tissue ratio at 1 h was 3.44 ± 0.83 (T/brain); 4.61 ± 1 (T/heart); 0.84 ± 0.35 (T/intestine); 0.88 ± 0.74 (T/kidney); 2.34 ± 0.36 (T/liver); 3.29 ± 0.79 (T/lung). For the same molecule, where the note is “T/muscle”, the tissue to tissue ratio at 1 h is 2.87 ± 0.45.
